How the values were obtained:
[1] = Blood cell count and histopathology of peripheral organs (liver, lung, kidney) after daily oral administration; type: in vivo; details: after 3 months of daily treatment
[2] = tested on: NIH3T3 cells stably expressing the KFERQ-PS-Dendra reporter; test: CMA activity in cells with KFERQ-PS-Dendra reporter (fluorescent puncta per cell); type: cell-based, mouse; details: increasing concentrations; 12 h, 16 h or 24 h treatment
Description: FIG. 10. Characterization of the brain permeable chemical activator of CMA and effect in a mouse model of Frontotemporal dementia-related proteotoxicity. (A) Chemical structure of AR7 and CA77.1. (B) Quantification of the effect of adding increasing concentrations of AR7 and CA77.1 to NIH3T3 cells stably expressing the KFERQ-PS-Dendra reporter. CMA activity was quantified after 16 h treatment as the average of fluorescent puncta per cell. (n>800 cells per condition). (C) Autophagic flux in NIH3T3 cells incubated at 37° C. for 16 h with 20 µM AR7 or CA77.1 or without additions (none). Where indicated lysosomal protease inhibitors (PI) were added to the cells 6 h before lysis. Left: representative immunoblot. […] Right: quantification of LC3-II flux as the difference in LC3-II levels in cells treated with PI relative to untreated. […] (D) Quantification of the effect of adding increasing concentrations of AR7 and CA77.1 to NIH3T3 cells stably expressing the KFERQ-PS-Dendra reporter. CMA activity was quantified after 12 h or 24 h treatment as the average of fluorescent puncta per cell. […] Representative immunoblot of 4-5 mice per genotype and treatment (L) and densitometric quantification of AT8 as monomer [Kruskal-Wallis statistic=20.48, p<0.0001] […] (O, P) Quantification of the number of Iba1-positive microglial cells per mm^2 in the hippocampus [Kruskal-Wallis statistic=10.55, p=0.0051] […]

CC(=O)Nc1ccc(-c2cnc3cc(Cl)ccc3n2)cc1 [CA77.1]
blood or major organs toxicity [1]: absence of blood or major organs toxicity | CMA activity in vitro [2]: activates CMA in vitro in dose- and time-dependent manner
